Literature values in US7776366B2, “Method and nutraceutical composition for mammals” (MD's Choice, Inc., priority 2002, dated 2010).

Details: within 30 minutes, in at least 3 species, via glucose transporter

efficiency of active absorption from the digestive tract: over 90%
Compound: N[C@H]1C(O)O[C@H](CO)[C@@H](O)[C@@H]1O.O=S(=O)(O)O (stereo partly shown) [Glucosamine sulphate]
